In ChEMBL document CHEMBL1201862, “PubChem BioAssay data set” (2004):
Counter-ions that a name gives are not always drawn. The source made the active and inactive calls.

Experiments:
[1] = molecular target: NAD-dependent protein deacylase sirtuin-5, mitochondrial (Homo sapiens, UniProt Q9NXA8); test: SIRT5 deacylase inhibitors, dose response, biochemical, fluorescence imaging, cherry-pick, set 6 (AID 720597)
cells [2] = test: cells
[3] = molecular target: Oxysterols receptor LXR-beta (Homo sapiens, UniProt P55055); assay type: functional, cell-based;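 further: Cell-based luminescence dose-response assay of agonist activity at LXR, run as a confirmatory counterscreen to a daf-12 agonist screen; HEK293 cells with Gal4-LXR fusion and GAL4-driven luciferase reporter; agonist potency from rising luciferase signal of a Gal4-LXR reporter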
Sequence of Oxysterols receptor LXR-beta (P55055 whole entry, the tested form may be a part): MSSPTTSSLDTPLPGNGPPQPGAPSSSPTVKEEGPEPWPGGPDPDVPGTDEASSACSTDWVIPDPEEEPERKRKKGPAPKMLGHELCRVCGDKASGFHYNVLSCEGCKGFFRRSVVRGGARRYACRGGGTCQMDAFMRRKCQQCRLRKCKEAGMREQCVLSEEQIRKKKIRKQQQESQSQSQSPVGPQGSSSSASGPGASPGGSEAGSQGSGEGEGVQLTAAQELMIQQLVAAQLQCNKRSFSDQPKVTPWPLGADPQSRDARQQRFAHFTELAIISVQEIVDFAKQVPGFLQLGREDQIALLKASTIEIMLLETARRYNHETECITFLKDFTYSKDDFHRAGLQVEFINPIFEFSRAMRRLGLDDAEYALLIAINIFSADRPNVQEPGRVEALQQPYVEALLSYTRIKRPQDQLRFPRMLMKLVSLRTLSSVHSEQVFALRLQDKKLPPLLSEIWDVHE

[4] = Single fluorophore orthopox expression reporter, late gene expression Measured in Cell-Based and Microorganism Combination System Using Plate Reader - 2142-08_Inhibitor_Dose_DryPowder_Activity.; assay type: functional
[5] = A549 cell cytotoxicity, dose response, CellTiter-Glo luminescence, dry powder, set 17 (AID 1117284); assay type: functional, cell-based
[6] = inhibitors of orthopox intermediate gene expression, dose response, cell-based, single fluorophore reporter, dry powder (AID 1117271); assay type: functional
[7] = Orthopox viral replication plaque formation Measured in Cell-Based and Microorganism Combination System Using Imaging - 2142-05_Inhibitor_Dose_DryPowder_Activity.; assay type: functional
[8] = HepG2 cell cytotoxicity, dose response, cytotoxicity control, luminescence, dry powder, set 9 (AID 743358); assay type: functional, cell-based
[9] = HEK293 cell cytotoxicity, dose response, cytotoxicity control, luminescence, dry powder, set 12 (AID 743354); assay type: functional, cell-based
[10] = P. falciparum Dd2 growth inhibitors, dose response, SYBR Green, dry powder samples, set 9 (AID 1159568); assay type: functional, cell-based
[11] = HepG2 cell cytotoxicity, dose response, cytotoxicity control, plate reader, dry powder samples (AID 1159569); assay type: functional, cell-based;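 further: inhibitor potency with signal falling toward the positive control level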
[12] = P. falciparum Dd2 growth inhibitors, dose response, SYBR Green, cherry-picked samples (AID 1159567); assay type: functional, cell-based
[13] = P. falciparum 3D7-ScDHODH growth inhibitors, dose response, SYBR Green, dry powder samples (AID 1159570); assay type: functional, cell-based;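 further: parasite growth measured after 72 hours of compound exposure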
[14] = Plasmodium falciparum Dd2 Sybr green parasite growth Measured in Cell-Based and Microorganism Combination System Using Plate Reader - 2153-01_Inhibitor_Dose_DryPowder_Activity_Set3.; assay type: functional
[15] = P. falciparum Dd2 growth inhibitors, dose response, SYBR Green, dry powder samples (AID 1159566); assay type: functional, cell-based;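 further: potency for growth inhibition with lower SYBR green DNA signal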
[16] = P. falciparum ATP4 D1247Y mutant growth inhibitors, dose response, NITD609-resistant line, SYBR Green, dry powder (AID 1159571); assay type: functional, cell-based;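 further: parasites synchronized at ring stage by sorbitol before testing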
[17] = HeLa 4N DNA content increase, dose response, cell-based, IC50 (AID 1117351); assay type: functional
[18] = HeLa 2N DNA content increase, dose response, cell-based, IC50 (AID 1117349); assay type: functional
[19] = Glucagon-like peptide 1 release potency, NCI-H716 cell line, dose-response, half-maximal inhibitory concentration (AID 1117344); assay type: functional, cell-based
[20] = half-maximal inhibitory concentration for glucagon-like peptide-1 release, STC-1 cell line, dose-response (AID 1117345); assay type: functional, cell-based
[21] = system: Streptococcus sp. 'group A'; test: growth inhibition of control SK(-) GAS strain, dose response, counter-screen for streptokinase expression inhibitor project, luminescence, kanamycin, BacTiterGlo, confirmation (AID 1900); assay type: functional, organism-based
Streptococcus = test: Group A Streptococcus viability loss, dose response, counter-screen for streptokinase expression inhibitor project, luminescence, BacTiterGlo (AID 1915); assay type: functional, organism-based; conditions: read-out: EC50;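 further: potency for reduction of bacterial viability or growth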
[22] = Dose-response inhibition of insulin secretion in a rat insulinoma line at 5 mM glucose (AID 1117331); assay type: functional, cell-based; conditions: INS-1E
cells [23] = assay type: functional, cell-based; conditions: INS-1E
[24] = molecular target: T1, Trace amine-associated receptor 1 (Homo sapiens, UniProt Q96RJ0); test: Counterscreen for agonists of the human trace amine associated receptor 1 (hTAAR1): Fluorescence-based cell-based high throughput dose response assay to identify hTAAR1 agonist that also desensitize TAAR1 receptor response.; assay type: functional
T1 sequence (Q96RJ0 whole entry): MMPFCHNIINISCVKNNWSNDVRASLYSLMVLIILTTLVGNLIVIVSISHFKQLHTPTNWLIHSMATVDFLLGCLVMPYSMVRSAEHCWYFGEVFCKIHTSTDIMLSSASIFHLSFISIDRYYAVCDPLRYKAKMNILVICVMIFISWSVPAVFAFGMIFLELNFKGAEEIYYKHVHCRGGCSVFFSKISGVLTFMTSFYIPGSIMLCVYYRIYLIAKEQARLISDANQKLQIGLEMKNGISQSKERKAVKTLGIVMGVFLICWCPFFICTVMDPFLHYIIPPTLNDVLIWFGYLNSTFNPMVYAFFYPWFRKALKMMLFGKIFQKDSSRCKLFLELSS

cells [25] = assay type: functional, cell-based
cells [26] = assay type: functional, cell-based; remark: listed apart in the source
[27] = molecular target: T1, Trace amine-associated receptor 1; test: Fluorescence-based cell-based high throughput dose response assay to identify agonists of the human trace amine associated receptor 1 (TAAR1).; assay type: functional

Sequence of NAD-dependent protein deacylase sirtuin-5, mitochondrial (Q9NXA8 whole entry): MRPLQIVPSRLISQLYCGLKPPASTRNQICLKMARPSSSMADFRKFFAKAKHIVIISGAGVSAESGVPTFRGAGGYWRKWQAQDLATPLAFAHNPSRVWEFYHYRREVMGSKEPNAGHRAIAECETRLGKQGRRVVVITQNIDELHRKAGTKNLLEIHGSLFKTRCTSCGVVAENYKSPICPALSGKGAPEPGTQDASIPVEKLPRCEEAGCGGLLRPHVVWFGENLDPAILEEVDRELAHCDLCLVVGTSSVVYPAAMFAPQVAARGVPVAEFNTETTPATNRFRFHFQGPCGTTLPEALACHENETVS

For `COc1ccc(S(=O)(=O)Nc2ccc3c(c2)CC(=O)N([C@H](C)CO)C[C@@H](C)[C@@H](CN(C)Cc2ccc(C(F)(F)F)cc2)O3)cc1`, which AC50 [1] is on record?
The AC50 was > 30 µM (inactive).

For `C/C(=N\Nc1ccccc1[N+](=O)[O-])c1ccccc1O`, which EC50 (cells [2]) is on record?
The EC50 was > 67.6 µM (inactive).

What about the EC50 [3] of the same compound?
Its EC50 is > 67.6 µM (inactive).

Which AC50 [4] does the source give for `Cc1cccc(-c2ccc(CN(C)C[C@@H]3Oc4cc(C#C[C@@H](C)O)ccc4S(=O)(=O)N([C@@H](C)CO)C[C@@H]3C)cc2)c1` here?
The AC50 was 1.48 µM (active).

What about the AC50 [5] of the same compound?
The AC50 was 35.5 µM (active).

What about the AC50 [6] of the same compound?
Its AC50 is 1.85 µM (active).

And the AC50 [7]?
The AC50 was 0.15 µM (active).

Which results are given for `COC(=O)CCCCCCC(=O)N1CC[C@@H]2[C@@H](CO)N(C)c3ccc(-c4cccc(F)c4)cc3[C@@H]21`?
AC50 [8]: > 52 µM (inactive); AC50 [9]: 46.1 µM (active)

For `CCCN1C[C@H](C)[C@@H](OC)CN(C)C(=O)c2cc(NC(=O)Nc3cccc(F)c3)ccc2OC[C@H]1C`, which AC50 [10] is on record?
Its AC50 is 1.61 µM (active).

What about the AC50 [11] of the same compound?
The AC50 was 42.2 µM (active).

What about the AC50 [12] of the same compound?
Its AC50 is 2.11 µM (active).

And the AC50 [13]?
The AC50 was 15.2 µM (active).

And the AC50 [14]?
Its AC50 is 2 µM (active).

What about the AC50 [15] of the same compound?
The AC50 was 0.469 µM (active).

And the AC50 [16]?
The AC50 was 2.47 µM (active).

Which results are given for `CCCCCCNC(=O)n1cc(F)c(=O)[nH]c1=O` [CARMOFUR]?
IC50 [17]: > 10 µM (inactive); IC50 [18]: > 10 µM (inactive)

Which IC50 [19] does the source give for `Clc1ccc(CO/N=C(\Cn2ccnc2)c2ccc(Cl)cc2Cl)c(Cl)c1` [OXICONAZOLE NITRATE] here?
Its IC50 is > 40 µM (inactive).

And the IC50 [20]?
The IC50 was > 40 µM (inactive).

And the EC50 [21]?
The EC50 was 1.92 µM (active).

What about the EC50 (Streptococcus) of the same compound?
The EC50 was 3.82 µM (active).

Which results are given for `N[C@@H]1C[C@H]1c1ccccc1` [TRANYLCYPROMINE HYDROCHLORIDE]?
IC50 [22]: > 33.3 µM (inactive); IC50 (cells [23]): > 33.3 µM (inactive); IC50 [24]: 2.1 µM (active); EC50 (cells [25]): > 29.9 µM (inactive); IC50 (cells [26]): > 29.9 µM (inactive); EC50 [27]: 0.611 µM (active)
